The values that follow come from patent US20230271949A1, “GLP-1R MODULATING COMPOUNDS” (ASCLETIS BIOSCIENCE CO., LTD., priority 2022, published 2023).

Molecules are shown by their SMILES. Bounds are passed on as bounds.

In this assay the target is GLP-1R (Homo sapiens, UniProt P43220). Briefly: GLP-1R agonist cAMP stimulation assay (HTRF cAMP). The note with it: HEK293 cell line expressing GLP-1 target; HTRF cAMP agonist mode, 30 min at RT. Type of assay: cell-based. The protocol: cAMP Detection Kit, Cisbio (Cat #62AM4PEJ)
GLP-1R, sequence (P43220 24-463): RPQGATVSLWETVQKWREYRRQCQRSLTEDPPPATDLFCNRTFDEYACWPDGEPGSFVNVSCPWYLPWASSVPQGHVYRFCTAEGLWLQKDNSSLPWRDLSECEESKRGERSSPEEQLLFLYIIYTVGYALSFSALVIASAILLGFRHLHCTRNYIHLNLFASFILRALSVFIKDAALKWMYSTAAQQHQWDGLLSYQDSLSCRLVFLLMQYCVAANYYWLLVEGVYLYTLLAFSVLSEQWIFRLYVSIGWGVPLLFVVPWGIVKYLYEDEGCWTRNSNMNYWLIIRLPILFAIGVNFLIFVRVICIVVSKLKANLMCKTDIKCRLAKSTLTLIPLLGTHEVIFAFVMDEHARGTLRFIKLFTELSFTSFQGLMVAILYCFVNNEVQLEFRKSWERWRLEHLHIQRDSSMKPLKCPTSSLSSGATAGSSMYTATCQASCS
The cell line was constructed by WuXi.
2. Methods • a) The compound source plate preparation: • The reference 7-37 was diluted from 500 nM, 4-fold, 10 points in DMSO using Bravo. The compounds were diluted from […], 3-fold, 10 points in DMSO using Bravo. • b) Transfer of compounds: • 1) Use Echo transfer 100 nL cpd to the OptiPlate-384 plate. • 2) Spin the plates at 1000 rpm for 5 sec. • c) Cell suspension preparation: • 1) Thaw 1 vial of GLP-1 cells rapidly in 37° C. water bath. • 2) Transfer cell suspension into 10 ml of HBSS in a 15 ml conical tube. • 3) Centrifuge cells at 1000 rpm for 5 min at room temperature to pellet cells • 4) Gently aspirate supernatant being careful not to aspirate cells. • 5) Flick pellet to loose cells and re-suspend the cell pellet in 10 ml HBSS. Use a sterile pipette to pipette up and down to dislodge clumps. • 6) Count cells for concentration and to determine cell viability on Vi-cell. • 7) Re-suspend the GLP-1 cells in assay buffer at a concentration of 1.0×E5/mL cells. • 8) Transfer 10 μL GLP-1 cells to OptiPlate-384 plate. • d) HTRF cAMP Assay for agonist: • 1) Incubate the plate at RT for 30 min before adding the detection reagent. • 2) Add 10 μL each of detection reagent using Electric Multiple Channel Pipette. • 3) Cover the 384 plate with TopSeal-A film and incubate for 60 minutes at room temperature. • Remove the TopSeal-A, read on EnVision.
Create a new log (Inhibitor) vs response—Variable slope mode in Prism5.0 software, substitute the standard curve concentration (x) and its corresponding 665/615 data (y) into the model, convert the standard curve concentration (abscissa) by x=log(x), and make the standard curve through the converted xy.
Transform the data of 665/615 in the whole plate into a column of data, substitute it into y in the table of standard curve concentration (x) and 665/615 data (y), copy the x (interpolatedx) corresponding to automatic conversion by the software into a table, convert it into cAMP level by the formula x=10^(x), and reset the data into 384 distribution.
% Activity=(cAMP level−LC)/(HC−LC)*100% • Z factor: 1-3*(STD_HC+[…])/(HC-LC) • Assay Window: HC/LC • LC: The average cAMP level of adding DMSO wells • HC: The average cAMP level of adding the top concentration of reference compounds wells.
Create a new […] in Prism5.0 software, substitute the sample concentration (x) and its corresponding % Activity data (y) into the model, convert the standard curve concentration (abscissa) to x=log(x), and make the sample curve through the converted xy.
`COCCn1c(Cc2ccc(-c3cccc(OCc4ccc(C#N)cc4F)n3)cc2)nc2cc(C(=O)NCCc3ccc(O)cc3)ccc21` [Compound 1, 2-(4-(6-((4-cyano-2-fluorobenzyl)oxy)pyridin-2-yl)benzyl)-N-(4-hydroxyphenethyl)-1-(2-methoxyethyl)-1H-benzo[d]imidazole-5-carboxamide] showed an EC50 of 4150 nM. The value for `Cc1n[nH]c2ccc(C(=O)Nc3ccc4c(c3)nc(CN3CC=C(c5cccc(OCc6ccc(Cl)cc6F)n5)CC3)n4C[C@@H]3CCO3)cc12` [Compound 4, (S)—N-(2-((6-((4-chloro-2-fluorobenzyl)oxy)-3′,6′-dihydro-[2,4′-bipyridin]-1′(2′H)-yl)methyl)-1-(oxetan-2-ylmethyl)-1H-benzo[d]imidazol-5-yl)-3-methyl-1H-indazole-5-carboxamide] was 0.14 nM; that for `Cc1n[nH]c2ccc(NC(=O)c3ccc4c(c3)nc(CN3CC=C(c5cccc6c5O[C@](C)(c5ccc(Cl)cc5F)O6)CC3)n4C[C@@H]3CCO3)cc12` [Compound 6] was 1.21 nM.

Compound `COCCn1c(C2CC23CCN(c2cccc(OCc4ccc(C#N)cc4F)n2)CC3)nc2cc(C(=O)Nc3ccc4[nH]nc(C)c4c3)ccc21` (centres unmarked) [Compound 7] came in with a concentration for a half-maximal effect (EC50) of 0.35 nM. The value for `COCCn1c(C2CC23CCN(c2cccc(OCc4ccc(C#N)cc4F)n2)CC3)nc2ccc(C(=O)Nc3ccc4[nH]nc(C)c4c3)cc21` (centres unmarked) [Compound 8] was 1.33 nM; that for `COCCn1c(Cc2ccc(-c3cccc(OCc4ccc(C#N)cc4F)n3)cc2)nc2cc(C(=O)NCCc3ccc(N)cc3)ccc21` [Compound 9] was 2980 nM. For the compound `COCCn1c(Cc2ccc(-c3cccc(OCc4ccc(C#N)cc4F)n3)cc2)nc2cc(C(=O)NCCc3ccc(C(=O)NCCc4ccc(C(=O)O)cc4)cc3)ccc21` [Compound 10], the concentration giving a half-maximal response (EC50) is 993 nM. The same measure for `COCCn1c(Cc2ccc(-c3cccc(OCc4ccc(C#N)cc4F)n3)cc2)nc2cc(C(=O)NCC(O)c3ccc(O)cc3)ccc21` (centres unmarked) [Compound 11]: 567 nM; for `COCCn1c(Cc2ccc(-c3cccc(OCc4ccc(C#N)cc4F)n3)cc2)nc2cc(C(=O)NCCc3ccc(C(=O)O)cc3)ccc21` [Compound 12]: 122 nM.

`COCCn1c(Cc2ccc(-c3cccc(OCc4ccc(C#N)cc4F)n3)cc2)nc2cc(NC(=O)CCc3ccccc3O)ccc21` [Compound 13]: the EC50 is 189 nM. In turn, `COCCn1c(CN2CCC(c3cccc(OCc4ccc(Cl)cc4F)n3)CC2)nc2cc(C(=O)N[C@@H]3CCc4nc(N)sc4C3)ccc21` [Compound 14] showed an EC50 of 447 nM. The value for `O=C(NCCc1ccc(O)cc1)c1ccc2c(c1)nc(CN1CCC(c3cccc(OCc4ccc(Cl)cc4F)n3)CC1)n2C[C@@H]1CCO1` [Compound 15] was 25.6 nM; that for `COCCn1c(CN2CCC(c3cccc(OCc4ccc(Cl)cc4F)n3)CC2)nc2cc(C(=O)NCCCn3ccnc3)ccc21` [Compound 16] was 146 nM; that for `COCCn1c(CN2CCC(c3cccc(OCc4ccc(Cl)cc4F)n3)CC2)nc2cc(C(=O)NCCc3c[nH]c4ccc(O)cc34)ccc21` [Compound 17] was 404 nM. The same measure for `COCCn1c(CN2CCC(c3cccc(OCc4ccc(Cl)cc4F)n3)CC2)nc2cc(C(=O)NCCc3ccccc3O)ccc21` [Compound 18]: 411 nM. Compound `COCCn1c(CN2CCC(c3cccc(OCc4ccc(Cl)cc4F)n3)CC2)nc2cc(C(=O)NCCc3cccc(O)c3)ccc21` [Compound 19] showed an EC50 of 176 nM.

As for `COCCn1c(CN2CCC(c3cccc(OCc4ccc(Cl)cc4F)n3)CC2)nc2cc(C(=O)NCCCc3ccc(OC)cc3)ccc21` [Compound 20], the EC50 came to 3240 nM. The value for `COCCn1c(CN2CCC(c3cccc(OCc4ccc(Cl)cc4F)n3)CC2)nc2cc(C(=O)NCc3ccc4[nH]ccc4c3)ccc21` [Compound 21] was 160 nM. The same measure for `COCCn1c(CN2CCC(c3cccc(OCc4ccc(Cl)cc4F)n3)CC2)nc2cc(C(=O)NCCc3nc4ccccc4[nH]3)ccc21` [Compound 22]: 1370 nM; for `COCCn1c(CN2CCC(c3cccc(OCc4ccc(Cl)cc4F)n3)CC2)nc2cc(C(=O)NCCc3ccc(C(F)(F)F)cc3)ccc21` [Compound 23]: above 10000 nM; for `O=C(NCc1ccc(O)cc1)c1ccc2c(c1)nc(CN1CCC(c3cccc(OCc4ccc(Cl)cc4F)n3)CC1)n2C[C@@H]1CCO1` [Compound 24]: 90.1 nM. The same measure for `COCCn1c(CN2CCC(c3cccc(OCc4ccc(Cl)cc4F)n3)CC2)nc2cc(C(=O)NCCCc3ccc(O)cc3)ccc21` [Compound 25]: 756 nM; for `COCCn1c(CN2CCC(c3cccc(OCc4ccc(Cl)cc4F)n3)CC2)nc2cc(C(=O)N3Cc4[nH]nc(N)c4C3)ccc21` [Compound 26]: above 10000 nM; for `COCCn1c(CN2CCC(c3cccc(OCc4ccc(Cl)cc4F)n3)CC2)nc2cc(C(=O)NCc3ccc(NC(C)=O)cc3)ccc21` [Compound 27]: 129 nM. Regarding `COCCn1c(CN2CCC(c3cccc(OCc4ccc(Cl)cc4F)n3)CC2)nc2cc(C(=O)NCc3ccc(O)c(OC)c3)ccc21` [Compound 28], the midpoint of the response, the EC50, lay at 75.7 nM.

Consider `COCCn1c(Cc2ccc(-c3cccc(OCc4ccc(C#N)cc4F)n3)cc2-c2nccn2C)nc2cc(C(=O)NCCc3ccc(S(N)(=O)=O)cc3)ccc21` [Compound 29], for which the EC50 was above 10000 nM.

`COCCn1c(CN2CCC(c3cccc(OCc4ccc(Cl)cc4F)n3)CC2)nc2cc(C(=O)NCc3ccc(C#N)cc3)ccc21` [Compound 30]: the concentration for a half-maximal effect (EC50) is 1380 nM.

`COCCn1c(CN2CCC(c3cccc(OCc4ccc(Cl)cc4F)n3)CC2)nc2cc(C(=O)NCc3ccc(O)c(F)c3)ccc21` [Compound 31] yielded an EC50 of 37.2 nM. The same measure for `COCCn1c(CN2CCC(c3cccc(OCc4ccc(Cl)cc4F)n3)CC2)nc2cc(C(=O)NCc3cccc(O)c3)ccc21` [Compound 32]: 112 nM; for `COCCn1c(CN2CCC(c3cccc(OCc4ccc(Cl)cc4F)n3)CC2)nc2cc(C(=O)NCc3ccc(O)c(O)c3)ccc21` [Compound 33]: 61 nM. The value for `COCCn1c(CN2CCC(c3cccc(OCc4ccc(Cl)cc4F)n3)CC2)nc2cc(C(=O)NCc3ccc(O)nc3)ccc21` [Compound 34] was 90.1 nM; that for `COCCn1c(CN2CCC(c3cccc(OCc4ccc(Cl)cc4F)n3)CC2)nc2cc(C(=O)NCc3ccccc3O)ccc21` [Compound 35] was above 10000 nM; that for `COCCn1c(CN2CCC(c3cccc(OCc4ccc(Cl)cc4F)n3)CC2)nc2cc(C(=O)NCc3ccc(O)c(C(=O)OC)c3)ccc21` [Compound 36] was above 10000 nM.

For `COCCn1c(CN2CCC(c3cccc(OCc4ccc(Cl)cc4F)n3)CC2)nc2cc(C(=O)NCc3ccc(O)c(C(=O)O)c3)ccc21` [Compound 37], the midpoint of the response, the EC50, lay at 106 nM. The same measure for `COCCn1c(CN2CCC(c3cccc(OCc4ccc(Cl)cc4F)n3)CC2)nc2cc(C(=O)NCc3ccc4[nH]c(=O)[nH]c4c3)ccc21` [Compound 38]: 17.7 nM. The value for `CNS(=O)(=O)Cc1ccc2[nH]cc(CCNC(=O)c3ccc4c(c3)nc(CN3CCC(c5cccc(OCc6ccc(Cl)cc6F)n5)CC3)n4CCOC)c2c1` [Compound 39] was 286 nM; that for `COCCn1c(CN2CCC(c3cccc(OCc4ccc(Cl)cc4F)n3)CC2)nc2cc(C(=O)N[C@@H](C)c3ccc(O)cc3)ccc21` [Compound 40] was 36.5 nM.

`COCCn1c(CN2CCC(c3cccc(OCc4ccc(Cl)cc4F)n3)CC2)nc2cc(C(=O)NCC(CC(=O)O)c3ccccc3)ccc21` (centres unmarked) [Compound 41]: the EC50 worked out at 376 nM.
